# Measurements: paper PMC6895048, “4,5-Disubstituted 1,2,3-triazoles: Effective Inhibition of Indoleamine 2,3-Dioxygenase 1 Enzyme Regulates T cell Activity and Mitigates Tumor Growth” (Scientific Reports, 2019)
# How the values were obtained:
# [1] = target: T1, IDO1 enzyme (ferric and deoxy-ferrous) (Homo sapiens, UniProt P14902); assay: Binding analysis by UV-Vis spectroscopic measurement; conditions: for Soret band red-shift: both ferric-IDO1 and deoxy-ferrous-IDO1; for Q-band shift: deoxy-ferrous-IDO1, Q-band at 551 nm for only enzyme
# T1 construct: made in house; host or cells: Escherichia coli M15 (pQE30 vector with pREP4 plasmid)
# Procedure: Figure 4 Binding properties of the potent compounds. Absorption spectra of ferric-IDO1 (A) and deoxy-ferrous-IDO1 enzyme (B) in the absence and presence of the compounds (20 μM) in 100 mM phosphate buffer at pH 6.5. [IDO1] = 0.65 μM. The ferrous-deoxy reaction environment was generated by adding Na2S2O4 to the solution under N2 atmosphere. The binding isotherms were generated from the response unit (RU) at 60 sec (average of triplicate measurements) versus the concentration of the compounds. A solid line represents a theoretical curve constructed from Rmax and Kd values determined by nonlinear least-squares analysis of the isotherms (C). 20 mm HEPES buffer, pH 7.4, with 0.16 m KCl was used for all SPR measurements. […] The model structures were generated using MoleGro Virtual Docker, version 6.0. The oxygen and nitrogen atoms are shown in red and blue, respectively. Residues involved in interactions through hydrogen bond formation are shown using dashed lines (yellow). Images were generated using PyMol.
# The efficacy of the compound’s direct binding to the enzyme active site was measured by UV-Vis spectroscopic analysis[26]–[28],[30]. All the measurements were performed at room temperature using 100 mM KPB (pH 6.5), purified hIDO1 enzyme (3 µM), and selected compounds (20 µM. The deoxy-reaction system was generated by injecting Na2S2O4 (~10-fold excess) into the solution pre-purged with N2 gas.
# [2] = target: T2, purified human TDO enzyme (Homo sapiens, UniProt P48775); assay: TDO inhibition assay by the spectrometric method; format: biochemical; conditions: for inhibitory efficacies against TDO enzyme: both spectrophotometric and kynurenine assay
# T2 construct: 6xHis (N); made in house; host or cells: Escherichia coli BL21 (DE3) (pET 28a vector)
# Procedure: Both IDO1 and TDO inhibition assays were performed according to the reported procedures[26]–[30],[50],[51]. The solubility of the compounds in water was either moderate or poor. […] In the assay system, the minimum and maximum amount of DMSO was 0.02% and 2%, respectively. The standard reaction mixture (500 μL) containing KPB (100 mM, pH 6.5 for IDO1 enzyme and 50 mM, pH 8.0 for TDO enzyme), sodium ascorbate (20 mM), methylene blue (10 µM), catalase (240 nM, from bovine liver), L-Trp (150 µM), purified enzyme (40 nM for IDO1 and 25 nM for TDO), DMSO (0.05%, v/v), Triton-X 100 (0.01%, v/v) and inhibitors was incubated at 37 °C for 1 hour. The concentration of the inhibitors was varied from 100 µM to 32 nM by serial dilution technique. Then, the reaction was quenched with 100 µL of 30% (w/v) trichloroacetic acid and was incubated for further 15 minutes at 65 °C. After that, 2% (w/v) pDMAB was used to quantify the amount of kynurenine formation. The absorbance of the reaction mixture was recorded by UV-Vis spectrophotometer at 480 nm. The Km = 59.76 µM and Kcat = 6.18 sec^−1.
# TDO enzyme = target: T3, TDO enzyme (Homo sapiens, UniProt P48775); assay: HPLC based TDO inhibition assay; format: biochemical
# T3 construct: 6xHis (N); made in house; host or cells: Escherichia coli BL21 (DE3) (pET 28a vector)
# Procedure: HPLC based IDO1, and TDO inhibition assays were performed according to the earlier reported procedure[19],[27]–[30]. The reaction mixture (250 µL) contained KPB (100 mM, pH 6.5 for IDO1 and 50 mM, pH 8.0 for TDO), sodium ascorbate (20 mM), methylene blue (10 µM), catalase (240 nM, from bovine liver, Sigma), L-Trp (150 µM), purified enzyme (40 nM for IDO1 and 25 nM for TDO), DMSO (0.05%, v/v), Triton-X 100 (0.01%, v/v) and inhibitors. The concentration of the compound was varied from 100 µM to 32 nM by serial dilution. The mixture was incubated at 37 °C for 1 hour in the absence and presence of the synthesized compounds. The reaction was then quenched using 50 µL of 30% (w/v) trichloroacetic acid and incubated at 65 °C for additional 15 minutes to allow complete hydrolysis of N-formylkynurenine to kynurenine. After that, the mixture was centrifuged at 10,000 rpm for 10 minutes, and 100 µL of clear solution was transferred to another tube for HPLC analysis. Then, 20 µL of the reaction mixture was then injected through Ascentis® express C18, 2.7 µm HPLC column with a flow rate of 0.5 mL/minute of the mobile phase containing 50% sodium citrate buffer (40 mM, pH 2.25) and 50% methanol (v/v) with 400 µM SDS. The area under the curve at 365 nm chromatogram corresponding to the kynurenine formation was recorded, and % of inhibition was calculated using standard curve prepared with pure kynurenine (from Sigma) under similar experimental conditions.
# IDO1 = IDO1 (Homo sapiens, UniProt P14902); assay: Determination of mode of enzyme inhibition (Lineweaver-Burk); format: biochemical; parameters: made in house; host or cells: Escherichia coli M15 (pQE30 vector with pREP4 plasmid); conditions: for Ki: Km = 59.76 µM and Kcat = 6.18 sec-1; for Mode of IDO1 inhibition: with respect to L-Trp
# Procedure: The mode of IDO1 enzyme inhibition was measured according to the reported spectrophotometric method. The assay was performed by varying both tryptophan concentration from 50 to 150 µM and inhibitor concentration from 32 nM to 4 µM. The amount of formation of N-formylkynurenine was recorded at different time intervals. The mode of enzyme inhibition was determined from the plot of 1/V against 1/[S], where V is the initial rate of the enzymatic reaction and [S] is the L-Trp concentration.
# Chain of IDO1 (P14902 whole entry): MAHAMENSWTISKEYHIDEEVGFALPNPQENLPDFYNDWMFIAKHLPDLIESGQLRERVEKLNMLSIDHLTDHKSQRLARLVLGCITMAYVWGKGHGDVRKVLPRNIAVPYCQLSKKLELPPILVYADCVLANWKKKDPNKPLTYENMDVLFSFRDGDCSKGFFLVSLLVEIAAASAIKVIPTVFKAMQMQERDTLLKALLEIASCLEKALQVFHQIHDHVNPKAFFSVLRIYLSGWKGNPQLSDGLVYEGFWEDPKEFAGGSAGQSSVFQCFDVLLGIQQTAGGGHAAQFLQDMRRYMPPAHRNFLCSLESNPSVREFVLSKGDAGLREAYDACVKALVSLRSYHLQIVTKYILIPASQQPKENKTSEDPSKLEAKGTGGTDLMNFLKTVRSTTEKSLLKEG
# T1 sequence (P14902 whole entry): as above
# T3 sequence (P48775 whole entry): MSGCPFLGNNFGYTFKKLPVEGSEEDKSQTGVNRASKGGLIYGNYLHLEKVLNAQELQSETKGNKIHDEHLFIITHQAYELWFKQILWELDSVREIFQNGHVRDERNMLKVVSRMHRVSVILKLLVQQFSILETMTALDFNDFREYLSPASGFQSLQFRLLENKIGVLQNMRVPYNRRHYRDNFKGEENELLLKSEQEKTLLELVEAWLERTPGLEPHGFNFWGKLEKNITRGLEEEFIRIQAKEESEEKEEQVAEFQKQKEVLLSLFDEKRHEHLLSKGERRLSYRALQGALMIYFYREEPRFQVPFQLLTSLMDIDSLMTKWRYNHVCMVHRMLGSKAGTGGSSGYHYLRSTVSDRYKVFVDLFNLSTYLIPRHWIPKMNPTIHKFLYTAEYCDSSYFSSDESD
# T2 sequence (P48775 whole entry): as above
Soret band red-shift [1],Q-band shift [1],inhibitory efficacies against TDO enzyme [2],"% of Enzyme inhibition (TDO) ([2]; spectrophotometric, 32 nM) [%]","% of Enzyme inhibition (TDO) ([2]; spectrophotometric, 160 nM) [%]","% of Enzyme inhibition (TDO) ([2]; spectrophotometric, 800 nM) [%]","% of Enzyme inhibition (TDO) ([2]; spectrophotometric, 4 µM) [%]","% of Enzyme inhibition (TDO) ([2]; spectrophotometric, 20 µM) [%]","% of Enzyme inhibition (TDO) ([2]; spectrophotometric, 100 µM) [%]",% Of inhibition for TDO enzyme (TDO enzyme; 32 nM) [%],% Of inhibition for TDO enzyme (TDO enzyme; 160 nM) [%],% Of inhibition for TDO enzyme (TDO enzyme; 800 nM) [%],% Of inhibition for TDO enzyme (TDO enzyme; 4 µM) [%],% Of inhibition for TDO enzyme (TDO enzyme; 20 µM) [%],% Of inhibition for TDO enzyme (TDO enzyme; 100 µM) [%],Ki (IDO1) [nM],Mode of IDO1 inhibition (IDO1),SMILES,also measured
5–8 nm,10–13 nm,moderate to poor,2,9,12,15,23,28,34,47,49,65,63,83,241 ± 38,competitive,CCOC(=O)c1n[nH]nc1-c1ccc(F)c(F)c1 [Compound 2i],–
5–8 nm,10–13 nm,moderate to poor,4,7,14,24,42,55,15,25,26,50,66,73,258 ± 22,competitive,O=C(N/C(Cc1ccc(O)cc1)=N\O)c1n[nH]nc1-c1ccc(F)c(F)c1 [Compound 4i],–
5–8 nm,10–13 nm,moderate to poor,–,–,–,–,–,–,–,–,–,–,–,–,98 ± 11,competitive,NS(=O)(=O)NCCNC(=O)c1n[nH]nc1-c1ccc(F)c(F)c1 [Compound 4k],"inhibition at 0.032 µM ([2]; spectrophotometric, 32 nM): 3%; inhibition at 0.16 µM ([2]; spectrophotometric, 160 nM): 6%; inhibition at 0.8 µM ([2]; spectrophotometric, 800 nM): 16%; inhibition at 4 µM ([2]; spectrophotometric, 4 µM): 32%; inhibition at 20 µM ([2]; spectrophotometric, 20 µM): 45%; inhibition at 100 µM ([2]; spectrophotometric, 100 µM): 50%; inhibition at 0.032 µM (TDO enzyme; 32 nM): 13%; inhibition at 0.16 µM (TDO enzyme; 160 nM): 24%; inhibition at 0.8 µM (TDO enzyme; 800 nM): 46%; inhibition at 4 µM (TDO enzyme; 4 µM): 58%; inhibition at 20 µM (TDO enzyme; 20 µM): 63%; inhibition at 100 µM (TDO enzyme; 100 µM): 68%"
5–8 nm,10–13 nm,moderate to poor,5,11,14,26,33,49,10,18,21,18,37,52,160 ± 15,competitive,NC(=O)c1n[nH]nc1-c1ccc(F)c(F)c1 [Compound 3i],–
